The values that follow come from patent US20260022142A1, “MACROCYCLIC IMMUNOMODULATORS” (Bristol-Myers Squibb Company, priority 2022, published 2026).

SMILES strings stand for the structures. pIC50: −log10 of the molar value. Numbered stars: 1 amine (or outer) side, 2 acyl side, 3 side chain; on linkers, the order of the positions; unused ones are H or OH. Bridge positions count the residues as written; N and C are the ends. Square brackets hold non-standard residues; d marks the D form. Peptide text beside a SMILES is read from it. * marks the point of attachment. Phe(4-COOH) = N[C@@H](Cc1ccc(C(=O)O)cc1)C(=O)O; Bip = N[C@@H](Cc1ccc(-c2ccccc2)cc1)C(=O)O; NH(CH2)14COOH = O=C(O)CCCCCCCCCCCCCCN*; Phe(3-Me) = Cc1cccc(C[C@H](N)C(=O)O)c1; γGlu = O=C(O)[C@H](CCC(=O)[*:2])N[*:1]; NH(CH2)12COOH = O=C(O)CCCCCCCCCCCCN*; Val(3-OH) = CC(C)(O)[C@H](N)C(=O)O; 4Pal = N[C@@H](Cc1ccncc1)C(=O)O; Cha = N[C@@H](CC1CCCCC1)C(=O)O; Carboxymethyl = O=C(O)C*; Nle = CCCC[C@H](N)C(=O)O; Orn = NCCC[C@H](N)C(=O)O; Aun = NCCCCCCCCCCC(=O)O; Dab = NCC[C@H](N)C(=O)O; Nva = CCC[C@H](N)C(=O)O; Dap = NC[C@H](N)C(=O)O; AEEA = NCCOCCOCC(=O)O; Propargyl = C#CC*

T1 sequence (Q15116 25-288): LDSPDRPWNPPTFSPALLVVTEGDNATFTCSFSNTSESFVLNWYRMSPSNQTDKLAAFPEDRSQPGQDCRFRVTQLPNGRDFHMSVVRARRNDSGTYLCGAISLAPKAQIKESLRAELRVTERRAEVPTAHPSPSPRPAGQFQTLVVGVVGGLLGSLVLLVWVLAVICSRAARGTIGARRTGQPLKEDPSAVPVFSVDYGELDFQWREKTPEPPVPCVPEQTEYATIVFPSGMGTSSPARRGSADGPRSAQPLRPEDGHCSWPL

The experiment concerns the target T1, PD-1/PD-L1 interaction (PE-labeled human PD-L1-Ig binding to Jurkat cell line over-expressing human PD-1) (Homo sapiens, UniProt Q15116).
T1 construct: expressed in transfected cells; host or cells: Jurkat
Description: Jurkat-PD-1 Cell Binding High-Content Screening Assay (CBA). It counts as cell-based. Conditions: Jurkat cell line over-expressing human PD-1; PE-labeled PD-L1-Ig 20 nM final; read-out: Jurkat hPD1-PDL1 IC50. In outline: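 Binding of fluorescent PD-L1-Ig (20 nM final) to Jurkat-PD-1 cells was measured by automated imaging after 1 h, following a 2 h compound pre-treatment at 37° C.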
By pIC50 is commonly meant −log10 of the IC50, conventionally taken in molar units. Take `C#CCOc1ccc(C[C@@H]2NC(=O)[C@H](C(C)C)NC(=O)[C@H](CC3CCCCC3)NC(=O)[C@H](CCN)NC(=O)[C@@H](CC(C)C)NC(=O)[C@H](CCCN)NC(=O)[C@H](Cc3ccc(OCC(=O)O)cc3)NC(=O)[C@H](Cc3ccc(-c4ccccc4)cc3)NC(=O)[C@H](Cc3ccc(OCC(=O)O)cc3)NC(=O)[C@H](Cc3cccc(C)c3)NC(=O)[C@H](CC(=O)O)NC(=O)[C@H](Cc3ccc(OCC(=O)O)cc3)NC(=O)[C@H](CN)NC(=O)CSC[C@@H](C(=O)N[C@@H](CCN)C(=O)NCCCCCCCCCCC(=O)O)NC2=O)cc1` [Compound 1248] ({CH2CO}-[Dap]Y(Carboxymethyl)D[Phe(3-Me)]Y(Carboxymethyl)[Bip]Y(Carboxymethyl)[Orn][dL][Dab][Cha]VY(Propargyl)C[Dab][Aun]-OH; thioether N-14): the pIC50 is 6.43.

With `C#CCOc1ccc(C[C@@H]2NC(=O)[C@H](C(C)C)NC(=O)[C@H](CC3CCCCC3)NC(=O)[C@H](CCN)NC(=O)[C@@H](CC(C)C)NC(=O)[C@H](CCCN)NC(=O)[C@H](Cc3ccc(OCC(=O)O)cc3)NC(=O)[C@H](Cc3ccc(-c4ccccc4)cc3)NC(=O)[C@H](Cc3ccc(OCC(=O)O)cc3)NC(=O)[C@H](Cc3cccc(C)c3)NC(=O)[C@H](CC(=O)O)NC(=O)[C@H](Cc3ccncc3)NC(=O)[C@H](Cc3ccc(OCC(=O)O)cc3)NC(=O)CSC[C@@H](C(=O)N[C@@H](CCN)C(=O)NCCCCCCCCCCC(=O)O)NC2=O)cc1` [Compound 1249] ({CH2CO}-Y(Carboxymethyl)[4Pal]D[Phe(3-Me)]Y(Carboxymethyl)[Bip]Y(Carboxymethyl)[Orn][dL][Dab][Cha]VY(Propargyl)C[Dab][Aun]-OH; thioether N-14), the negative logarithm of the IC50 (pIC50) is 7.09.

As to `C#CCOC[C@@H]1NC(=O)[C@H](C(C)C)NC(=O)[C@H](CC2CCCCC2)NC(=O)[C@H](CCN)NC(=O)[C@@H](CC(C)C)NC(=O)[C@H](CCCN)NC(=O)[C@H](Cc2ccc(OCC(=O)O)cc2)NC(=O)[C@H](Cc2ccc(-c3ccccc3)cc2)NC(=O)[C@H](Cc2ccc(OCC(=O)O)cc2)NC(=O)[C@H](Cc2cccc(C)c2)NC(=O)[C@H](CC(=O)O)NC(=O)[C@H](Cc2ccncc2)NC(=O)[C@H](Cc2ccc(OCC(=O)O)cc2)NC(=O)CSC[C@@H](C(=O)N[C@@H](CCN)C(=O)NCCCCCCCCCCC(=O)O)NC1=O` [Compound 1250] ({CH2CO}-Y(Carboxymethyl)[4Pal]D[Phe(3-Me)]Y(Carboxymethyl)[Bip]Y(Carboxymethyl)[Orn][dL][Dab][Cha]VS(Propargyl)C[Dab][Aun]-OH; thioether N-14), the pIC50 is 7.39.

For the compound `C#CCOc1ccc(C[C@@H]2NC(=O)[C@H](C(C)C)NC(=O)[C@H](CC3CCCCC3)NC(=O)[C@H](CCN)NC(=O)[C@@H](CC(C)C)NC(=O)[C@H](CCCN)NC(=O)[C@H](Cc3ccc(OCC(=O)O)cc3)NC(=O)[C@H](Cc3ccc(-c4ccccc4)cc3)NC(=O)[C@H](Cc3ccc(OCC(=O)O)cc3)NC(=O)[C@H](Cc3cccc(C)c3)NC(=O)[C@H](CC(=O)O)NC(=O)[C@H](Cc3ccc(OCC(=O)O)cc3)NC(=O)[C@H](CN)NC(=O)CSC[C@@H](C(=O)N[C@@H](CCN)C(=O)NCCOCCOCC(=O)NCCCCCCCCCCC(=O)O)NC2=O)cc1` [Compound 1251] ({CH2CO}-[Dap]Y(Carboxymethyl)D[Phe(3-Me)]Y(Carboxymethyl)[Bip]Y(Carboxymethyl)[Orn][dL][Dab][Cha]VY(Propargyl)C[Dab][AEEA][Aun]-OH; thioether N-14), the pIC50 was 7.42.

Regarding `Cc1cccc(C[C@@H]2NC(=O)[C@H](CC(=O)O)NC(=O)[C@H](Cc3ccc(OCC(=O)O)cc3)NC(=O)[C@H](CCN)NC(=O)CSC[C@@H](C(=O)N[C@@H](CCN)C(=O)NCCOCCOCC(=O)NCCOCCOCC(=O)N[C@@H](CC(=O)NCCCCCCCCCCCCCCC(=O)O)C(=O)O)NC(=O)[C@H](Cc3c[nH]cn3)NC(=O)[C@H](C(C)(C)O)NC(=O)[C@H](CC3CCCCC3)NC(=O)[C@H](CCN)NC(=O)[C@@H](CC(C)C)NC(=O)[C@H](CCCN)NC(=O)[C@H](Cc3ccc(C(=O)O)cc3)NC(=O)[C@H](Cc3ccc(-c4ccccc4)cc3)NC(=O)[C@H](Cc3ccc(C(=O)O)cc3)NC2=O)c1` [Compound 1252] ({CH2CO}-[Dab]Y(Carboxymethyl)D[Phe(3-Me)][Phe(4-COOH)][Bip][Phe(4-COOH)][Orn][dL][Dab][Cha][Val(3-OH)]HC[Dab][AEEA][AEEA]D(NH(CH2)14COOH)-OH; thioether N-14), the pIC50 was 7.38.

Turning to `Cc1cccc(C[C@@H]2NC(=O)[C@H](CC(=O)O)NC(=O)[C@H](Cc3ccc(OCC(=O)O)cc3)NC(=O)[C@H](CCN)NC(=O)CSC[C@@H](C(=O)N[C@@H](CCN)C(=O)NCCOCCOCC(=O)NCCOCCOCC(=O)N[C@@H](CCC(=O)NCCCCCCCCCCCCCCC(=O)O)C(=O)O)NC(=O)[C@H](Cc3cnc[nH]3)NC(=O)[C@H](C(C)(C)O)NC(=O)[C@H](CC3CCCCC3)NC(=O)[C@H](CCN)NC(=O)[C@@H](CC(C)C)NC(=O)[C@H](CCCN)NC(=O)[C@H](Cc3ccc(C(=O)O)cc3)NC(=O)[C@H](Cc3ccc(-c4ccccc4)cc3)NC(=O)[C@H](Cc3ccc(C(=O)O)cc3)NC2=O)c1` [Compound 1253] ({CH2CO}-[Dab]Y(Carboxymethyl)D[Phe(3-Me)][Phe(4-COOH)][Bip][Phe(4-COOH)][Orn][dL][Dab][Cha][Val(3-OH)]HC[Dab][AEEA][AEEA]E(NH(CH2)14COOH)-OH; thioether N-14), the pIC50 is 7.51.

In the case of `Cc1cccc(C[C@@H]2NC(=O)[C@H](CC(=O)O)NC(=O)[C@H](Cc3ccc(OCC(=O)O)cc3)NC(=O)[C@H](CCN)NC(=O)CSC[C@@H](C(=O)N[C@@H](CCN)C(=O)NCCOCCOCC(=O)NCCOCCOCC(=O)N[C@@H](CC(=O)NCCCCCCCCCCCCC(=O)O)C(=O)O)NC(=O)[C@H](Cc3cnc[nH]3)NC(=O)[C@H](C(C)(C)O)NC(=O)[C@H](CC3CCCCC3)NC(=O)[C@H](CCN)NC(=O)[C@@H](CC(C)C)NC(=O)[C@H](CCCN)NC(=O)[C@H](Cc3ccc(C(=O)O)cc3)NC(=O)[C@H](Cc3ccc(-c4ccccc4)cc3)NC(=O)[C@H](Cc3ccc(C(=O)O)cc3)NC2=O)c1` [Compound 1255] ({CH2CO}-[Dab]Y(Carboxymethyl)D[Phe(3-Me)][Phe(4-COOH)][Bip][Phe(4-COOH)][Orn][dL][Dab][Cha][Val(3-OH)]HC[Dab][AEEA][AEEA]D(NH(CH2)12COOH)-OH; thioether N-14), the pIC50 was 7.99.

With `Cc1cccc(C[C@@H]2NC(=O)[C@H](CC(=O)O)NC(=O)[C@H](Cc3ccc(OCC(=O)O)cc3)NC(=O)[C@H](CCN)NC(=O)CSC[C@@H](C(=O)N[C@@H](CCN)C(=O)NCCOCCOCC(=O)NCCOCCOCC(=O)N[C@@H](CCC(=O)NCC(=O)NCCCCCCCCCCCCC(=O)O)C(=O)O)NC(=O)[C@H](Cc3cnc[nH]3)NC(=O)[C@H](C(C)(C)O)NC(=O)[C@H](CC3CCCCC3)NC(=O)[C@H](CCN)NC(=O)[C@@H](CC(C)C)NC(=O)[C@H](CCCN)NC(=O)[C@H](Cc3ccc(C(=O)O)cc3)NC(=O)[C@H](Cc3ccc(-c4ccccc4)cc3)NC(=O)[C@H](Cc3ccc(C(=O)O)cc3)NC2=O)c1` [Compound 1256] ({CH2CO}-[Dab]Y(Carboxymethyl)D[Phe(3-Me)][Phe(4-COOH)][Bip][Phe(4-COOH)][Orn][dL][Dab][Cha][Val(3-OH)]HC[Dab][AEEA][AEEA][γGlu]G-{NH(CH2)12COOH}; thioether N-14), the negative-log IC50 (pIC50) is 8.00.

Turning to `Cc1cccc(C[C@@H]2NC(=O)[C@H](CC(=O)O)NC(=O)[C@H](Cc3ccc(OCC(=O)O)cc3)NC(=O)[C@H](CN)NC(=O)CSC[C@@H](C(=O)N[C@@H](CCN)C(=O)NCCOCCOCC(=O)NCCCCCCCCCCC(=O)O)NC(=O)[C@H](CCC(=O)O)NC(=O)[C@H](C(C)C)NC(=O)[C@H](CC(C)C)NC(=O)[C@H](CCN)NC(=O)[C@@H](CC(C)C)NC(=O)[C@H](CCCN)NC(=O)[C@H](Cc3ccc(OCC(=O)O)cc3)NC(=O)[C@H](Cc3ccc(-c4ccccc4)cc3)NC(=O)[C@H](Cc3ccc(OCC(=O)O)cc3)NC2=O)c1` [Compound 1257] ({CH2CO}-[Dap]Y(Carboxymethyl)D[Phe(3-Me)]Y(Carboxymethyl)[Bip]Y(Carboxymethyl)[Orn][dL][Dab]LVEC[Dab][AEEA][Aun]-OH; thioether N-14), the negative logarithm of the IC50 (pIC50) is 7.70.

Turning to `CCCC[C@@H]1NC(=O)[C@H](CCN)NC(=O)[C@@H](CC(C)C)NC(=O)[C@H](CCCN)NC(=O)[C@H](Cc2ccc(OCC(=O)O)cc2)NC(=O)[C@H](Cc2ccc(-c3ccccc3)cc2)NC(=O)[C@H](Cc2ccc(OCC(=O)O)cc2)NC(=O)[C@H](Cc2cccc(C)c2)NC(=O)[C@H](CC(=O)O)NC(=O)[C@H](Cc2ccc(OCC(=O)O)cc2)NC(=O)[C@H](CN)NC(=O)CSC[C@@H](C(=O)N[C@@H](CCN)C(=O)NCCOCCOCC(=O)NCCCCCCCCCCC(=O)O)NC(=O)[C@H](CCC(=O)O)NC(=O)[C@H](C(C)C)NC1=O` [Compound 1258] ({CH2CO}-[Dap]Y(Carboxymethyl)D[Phe(3-Me)]Y(Carboxymethyl)[Bip]Y(Carboxymethyl)[Orn][dL][Dab][Nle]VEC[Dab][AEEA][Aun]-OH; thioether N-14), the pIC50 was 7.35.

As for `CCC[C@@H]1NC(=O)[C@H](CCN)NC(=O)[C@@H](CC(C)C)NC(=O)[C@H](CCCN)NC(=O)[C@H](Cc2ccc(OCC(=O)O)cc2)NC(=O)[C@H](Cc2ccc(-c3ccccc3)cc2)NC(=O)[C@H](Cc2ccc(OCC(=O)O)cc2)NC(=O)[C@H](Cc2cccc(C)c2)NC(=O)[C@H](CC(=O)O)NC(=O)[C@H](Cc2ccc(OCC(=O)O)cc2)NC(=O)[C@H](CN)NC(=O)CSC[C@@H](C(=O)N[C@@H](CCN)C(=O)NCCOCCOCC(=O)NCCCCCCCCCCC(=O)O)NC(=O)[C@H](CCC(=O)O)NC(=O)[C@H](C(C)C)NC1=O` [Compound 1259] ({CH2CO}-[Dap]Y(Carboxymethyl)D[Phe(3-Me)]Y(Carboxymethyl)[Bip]Y(Carboxymethyl)[Orn][dL][Dab][Nva]VEC[Dab][AEEA][Aun]-OH; thioether N-14), the pIC50 was 6.82.
